Assay results as given in ChEMBL document CHEMBL1157646, “Melanogenesis inhibitors from the desert plant Anastatica hierochuntica in B16 melanoma cells” (Bioorg Med Chem, 2010).
Calls of active or inactive are those of the source. The rule behind the calls is not given here.

Tested on: not listed separately
Assay: Toxicity in mouse B16-4A5 cells assessed as inhibition of cell proliferation at 10 uM in presence of 1 mM theophylline after 72 hrs by WST8 dye reduction assay
Assay type: cell-based
Conditions: not given

SMILES	inhibition at 72 h, 10 µM [%]
O=Cc1ccc(O)c(O)c1 [PROTOCATECHUALDEHYDE]	-3.7

Tested on: not listed separately
Assay: Effect on tyrosinase mRNA expression in mouse B16-4A5 cells assessed as tyrosinase mRNA/beta-actin mRNA expression ratio at 10 uM in presence of 1 mM theophylline after 72 hrs by RT-PCR
Assay type: functional
Conditions: not given

SMILES	Ratio
COc1cccc(-c2cc(=O)c3ccccc3o2)c1N	1.61
COc1cc([C@@H]2Oc3ccc([C@H]4Oc5cc(O)cc(O)c5C(=O)[C@@H]4O)cc3O[C@H]2CO)ccc1O [ISOSILYBIN B]	1.33

Tested on: not listed separately
Assay: Effect on TRP1 mRNA expression in mouse B16-4A5 cells assessed as TRP1 mRNA/beta-actin mRNA expression ratio at 30 uM in presence of 1 mM theophylline after 72 hrs by RT-PCR
Assay type: functional
Conditions: not given

SMILES	Ratio
COc1cccc(-c2cc(=O)c3ccccc3o2)c1N	1.53
COc1cc([C@@H]2Oc3ccc([C@H]4Oc5cc(O)cc(O)c5C(=O)[C@@H]4O)cc3O[C@H]2CO)ccc1O [ISOSILYBIN B]	1.14

Tested on: not listed separately
Assay: cells
Conditions: Mus musculus, B16-4A5, 72 h, read-out: INH
Description: Inhibition of theophylline-stimulated melanogenesis in mouse B16-4A5 cells at 3 uM after 72 hrs

SMILES	inhibition at 3 µM [%]
COc1cc(C(O)C(CO)Oc2ccc(/C=C/CO)cc2OC)ccc1O (centres undefined)	11.7
COc1cc([C@@H]2Oc3ccc([C@H]4Oc5cc(O)cc(O)c5C(=O)[C@@H]4O)cc3O[C@H]2CO)ccc1O [ISOSILYBIN B]	37.5
O=Cc1ccc(O)c(O)c1 [PROTOCATECHUALDEHYDE]	13.8

Tested on: not listed separately
Assay: Effect on TRP1 mRNA expression in mouse B16-4A5 cells assessed as TRP1 mRNA/beta-actin mRNA expression ratio at 10 uM in presence of 1 mM theophylline after 72 hrs by RT-PCR
Assay type: functional
Conditions: not given

SMILES	Ratio
COc1cccc(-c2cc(=O)c3ccccc3o2)c1N	1.32
COc1cc([C@@H]2Oc3ccc([C@H]4Oc5cc(O)cc(O)c5C(=O)[C@@H]4O)cc3O[C@H]2CO)ccc1O [ISOSILYBIN B]	1.14

Tested on: not listed separately
Assay: cells
Conditions: Mus musculus, B16-4A5, 72 h, read-out: INH
Remark: another data set of the same source
Description: Inhibition of theophylline-stimulated melanogenesis in mouse B16-4A5 cells at 30 uM after 72 hrs

SMILES	inhibition at 30 µM [%]
COc1cc(C(O)C(CO)Oc2ccc(/C=C/CO)cc2OC)ccc1O (centres undefined)	52.9
COc1cc([C@@H]2Oc3ccc([C@H]4Oc5cc(O)cc(O)c5C(=O)[C@@H]4O)cc3O[C@H]2CO)ccc1O [ISOSILYBIN B]	73.4
O=Cc1ccc(O)c(O)c1 [PROTOCATECHUALDEHYDE]	57.9

Tested on: not listed separately
Assay: Effect on tyrosinase mRNA expression in mouse B16-4A5 cells assessed as tyrosinase mRNA/beta-actin mRNA expression ratio at 1 uM in presence of 1 mM theophylline after 72 hrs by RT-PCR
Assay type: functional
Conditions: not given

SMILES	Ratio
COc1cccc(-c2cc(=O)c3ccccc3o2)c1N	1.01
COc1cc([C@@H]2Oc3ccc([C@H]4Oc5cc(O)cc(O)c5C(=O)[C@@H]4O)cc3O[C@H]2CO)ccc1O [ISOSILYBIN B]	0.79

Tested on: not listed separately
Assay: Effect on TRP2 mRNA expression in mouse B16-4A5 cells assessed as TRP2 mRNA/beta-actin mRNA expression ratio at 1 uM in presence of 1 mM theophylline after 72 hrs by RT-PCR
Assay type: functional
Conditions: not given

SMILES	Ratio
COc1cccc(-c2cc(=O)c3ccccc3o2)c1N	1.12
COc1cc([C@@H]2Oc3ccc([C@H]4Oc5cc(O)cc(O)c5C(=O)[C@@H]4O)cc3O[C@H]2CO)ccc1O [ISOSILYBIN B]	0.97

Tested on: not listed separately
Assay: Toxicity in mouse B16-4A5 cells assessed as inhibition of cell proliferation at 1 uM in presence of 1 mM theophylline after 72 hrs by WST8 dye reduction assay
Assay type: cell-based
Conditions: not given

SMILES	inhibition at 72 h, 1 µM [%]
O=Cc1ccc(O)c(O)c1 [PROTOCATECHUALDEHYDE]	-4.7

Tested on: not listed separately
Assay: cells
Conditions: Mus musculus, B16-4A5, 72 h, read-out: INH
Remark: another data set of the same source
Description: Inhibition of theophylline-stimulated melanogenesis in mouse B16-4A5 cells at 10 uM after 72 hrs

SMILES	inhibition at 10 µM [%]
COc1cc(C(O)C(CO)Oc2ccc(/C=C/CO)cc2OC)ccc1O (centres undefined)	24.5
COc1cc([C@@H]2Oc3ccc([C@H]4Oc5cc(O)cc(O)c5C(=O)[C@@H]4O)cc3O[C@H]2CO)ccc1O [ISOSILYBIN B]	58
O=Cc1ccc(O)c(O)c1 [PROTOCATECHUALDEHYDE]	40.4

Target: T1, Tyrosinase (Agaricus bisporus) (UniProt O42713)
T1 sequence (whole entry): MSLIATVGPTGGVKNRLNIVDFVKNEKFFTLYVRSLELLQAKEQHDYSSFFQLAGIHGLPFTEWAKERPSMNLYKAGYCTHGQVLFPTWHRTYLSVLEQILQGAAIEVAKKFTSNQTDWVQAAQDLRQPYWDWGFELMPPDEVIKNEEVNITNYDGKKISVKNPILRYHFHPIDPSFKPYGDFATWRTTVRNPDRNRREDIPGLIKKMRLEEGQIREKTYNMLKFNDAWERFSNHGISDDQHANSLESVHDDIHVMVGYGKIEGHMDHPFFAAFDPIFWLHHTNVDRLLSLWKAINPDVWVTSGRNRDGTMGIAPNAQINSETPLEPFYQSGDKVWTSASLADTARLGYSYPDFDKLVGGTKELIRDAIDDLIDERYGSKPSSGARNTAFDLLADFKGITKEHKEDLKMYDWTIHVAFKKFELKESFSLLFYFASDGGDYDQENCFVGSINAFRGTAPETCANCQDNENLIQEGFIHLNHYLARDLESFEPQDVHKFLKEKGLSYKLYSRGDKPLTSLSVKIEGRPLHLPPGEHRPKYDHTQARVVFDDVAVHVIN
Assay: Inhibition of mushroom tyrosinase at 1 uM
Conditions: not given

SMILES	inhibition [%]
COc1cc([C@@H]2Oc3ccc([C@H]4Oc5cc(O)cc(O)c5C(=O)[C@@H]4O)cc3O[C@H]2CO)ccc1O [ISOSILYBIN B]	4.2
O=Cc1ccc(O)c(O)c1 [PROTOCATECHUALDEHYDE]	3.1

Tested on: not listed separately
Assay: Effect on TRP1 mRNA expression in mouse B16-4A5 cells assessed as TRP1 mRNA/beta-actin mRNA expression ratio at 3 uM in presence of 1 mM theophylline after 72 hrs by RT-PCR
Assay type: functional
Conditions: not given

SMILES	Ratio
COc1cccc(-c2cc(=O)c3ccccc3o2)c1N	1.18
COc1cc([C@@H]2Oc3ccc([C@H]4Oc5cc(O)cc(O)c5C(=O)[C@@H]4O)cc3O[C@H]2CO)ccc1O [ISOSILYBIN B]	1.02

Tested on: not listed separately
Assay: Effect on TRP2 mRNA expression in mouse B16-4A5 cells assessed as TRP2 mRNA/beta-actin mRNA expression ratio at 10 uM in presence of 1 mM theophylline after 72 hrs by RT-PCR
Assay type: functional
Conditions: not given

SMILES	Ratio
COc1cccc(-c2cc(=O)c3ccccc3o2)c1N	1.3
COc1cc([C@@H]2Oc3ccc([C@H]4Oc5cc(O)cc(O)c5C(=O)[C@@H]4O)cc3O[C@H]2CO)ccc1O [ISOSILYBIN B]	0.74

Tested on: not listed separately
Assay: Toxicity in mouse B16-4A5 cells assessed as inhibition of cell proliferation at 3 uM in presence of 1 mM theophylline after 72 hrs by WST8 dye reduction assay
Assay type: cell-based
Conditions: not given

SMILES	inhibition at 72 h, 3 µM [%]
O=Cc1ccc(O)c(O)c1 [PROTOCATECHUALDEHYDE]	-4.7

Tested on: not listed separately
Assay: Effect on TRP2 mRNA expression in mouse B16-4A5 cells assessed as TRP2 mRNA/beta-actin mRNA expression ratio at 3 uM in presence of 1 mM theophylline after 72 hrs by RT-PCR
Assay type: functional
Conditions: not given

SMILES	Ratio
COc1cccc(-c2cc(=O)c3ccccc3o2)c1N	1.2
COc1cc([C@@H]2Oc3ccc([C@H]4Oc5cc(O)cc(O)c5C(=O)[C@@H]4O)cc3O[C@H]2CO)ccc1O [ISOSILYBIN B]	0.7

Tested on: not listed separately
Assay: Toxicity in mouse B16-4A5 cells assessed as inhibition of cell proliferation at 30 uM in presence of 1 mM theophylline after 72 hrs by WST8 dye reduction assay
Assay type: cell-based
Conditions: not given

SMILES	inhibition at 72 h, 30 µM [%]
COc1cc(C(O)C(CO)Oc2ccc(/C=C/CO)cc2OC)ccc1O (centres undefined)	< 8.8
COc1cc([C@@H]2Oc3ccc([C@H]4Oc5cc(O)cc(O)c5C(=O)[C@@H]4O)cc3O[C@H]2CO)ccc1O [ISOSILYBIN B]	< 8.8
O=Cc1ccc(O)c(O)c1 [PROTOCATECHUALDEHYDE]	11.4

Target: T1, Tyrosinase (Agaricus bisporus)
Assay: Inhibition of mushroom tyrosinase at 3 uM
Conditions: not given

SMILES	inhibition [%]
COc1cc([C@@H]2Oc3ccc([C@H]4Oc5cc(O)cc(O)c5C(=O)[C@@H]4O)cc3O[C@H]2CO)ccc1O [ISOSILYBIN B]	4.8
O=Cc1ccc(O)c(O)c1 [PROTOCATECHUALDEHYDE]	2.3

Tested on: not listed separately
Assay: Effect on tyrosinase mRNA expression in mouse B16-4A5 cells assessed as tyrosinase mRNA/beta-actin mRNA expression ratio at 3 uM in presence of 1 mM theophylline after 72 hrs by RT-PCR
Assay type: functional
Conditions: not given

SMILES	Ratio
COc1cccc(-c2cc(=O)c3ccccc3o2)c1N	1.23
COc1cc([C@@H]2Oc3ccc([C@H]4Oc5cc(O)cc(O)c5C(=O)[C@@H]4O)cc3O[C@H]2CO)ccc1O [ISOSILYBIN B]	1.15

Tested on: not listed separately
Assay: Effect on TRP1 mRNA expression in mouse B16-4A5 cells assessed as TRP1 mRNA/beta-actin mRNA expression ratio at 1 uM in presence of 1 mM theophylline after 72 hrs by RT-PCR
Assay type: functional
Conditions: not given

SMILES	Ratio
COc1cccc(-c2cc(=O)c3ccccc3o2)c1N	0.92
COc1cc([C@@H]2Oc3ccc([C@H]4Oc5cc(O)cc(O)c5C(=O)[C@@H]4O)cc3O[C@H]2CO)ccc1O [ISOSILYBIN B]	1.22

Tested on: not listed separately
Assay: cells
Conditions: Mus musculus, B16-4A5, 72 h, read-out: INH
Remark: another data set of the same source
Description: Inhibition of theophylline-stimulated melanogenesis in mouse B16-4A5 cells at 1 uM after 72 hrs

SMILES	inhibition at 1 µM [%]
COc1cc(C(O)C(CO)Oc2ccc(/C=C/CO)cc2OC)ccc1O (centres undefined)	8.8
COc1cc([C@@H]2Oc3ccc([C@H]4Oc5cc(O)cc(O)c5C(=O)[C@@H]4O)cc3O[C@H]2CO)ccc1O [ISOSILYBIN B]	18.7
O=Cc1ccc(O)c(O)c1 [PROTOCATECHUALDEHYDE]	8.5

Tested on: not listed separately
Assay: Effect on TRP2 mRNA expression in mouse B16-4A5 cells assessed as TRP2 mRNA/beta-actin mRNA expression ratio at 30 uM in presence of 1 mM theophylline after 72 hrs by RT-PCR
Assay type: functional
Conditions: not given

SMILES	Ratio
COc1cccc(-c2cc(=O)c3ccccc3o2)c1N	1.69
COc1cc([C@@H]2Oc3ccc([C@H]4Oc5cc(O)cc(O)c5C(=O)[C@@H]4O)cc3O[C@H]2CO)ccc1O [ISOSILYBIN B]	0.64

Tested on: not listed separately
Assay: Effect on tyrosinase mRNA expression in mouse B16-4A5 cells assessed as tyrosinase mRNA/beta-actin mRNA expression ratio at 30 uM in presence of 1 mM theophylline after 72 hrs by RT-PCR
Assay type: functional
Conditions: not given

SMILES	Ratio
COc1cccc(-c2cc(=O)c3ccccc3o2)c1N	1.79
COc1cc([C@@H]2Oc3ccc([C@H]4Oc5cc(O)cc(O)c5C(=O)[C@@H]4O)cc3O[C@H]2CO)ccc1O [ISOSILYBIN B]	0.87

Target: T1, Tyrosinase (Agaricus bisporus)
Assay: Inhibition of mushroom tyrosinase assessed as inhibition of melanin production from dopachrome by autoxidation at 100 uM
Conditions: not given

SMILES	inhibition
COc1cc(C(O)C(CO)Oc2ccc(/C=C/CO)cc2OC)ccc1O (centres undefined)	inactive
COc1cc([C@@H]2Oc3ccc([C@H]4Oc5cc(O)cc(O)c5C(=O)[C@@H]4O)cc3O[C@H]2CO)ccc1O [ISOSILYBIN B]	inactive
O=Cc1ccc(O)c(O)c1 [PROTOCATECHUALDEHYDE]	inactive
